“Also recorded” adds a separate entry of the source. Square brackets hold non-standard residues; d marks the D form. Ends that are not written are not given here. Phe(4-NH2) = Nc1ccc(C[C@H](N)C(=O)O)cc1; Nle = CCCC[C@H](N)C(=O)O; Ac5c = NC1(C(=O)O)CCCC1
Key:
[1] = tested on: Normal human fibroblasts; experiment: Contraction of collagen lattices by human fibroblasts; format: cell-based; conditions: for Diameter of Lattice, Day 1 / Diameter of Lattice, Day 2 / Diameter of Lattice, Day 3 / Diameter of Lattice, Day 4: 10 μg/ml peptide, 1×10^5 fibroblasts/well; for Diameter of Lattice, Day 1: Day 1 of culture; for Diameter of Lattice, Day 2: Day 2 of culture; for Diameter of Lattice, Day 3: Day 3 of culture; for Diameter of Lattice, Day 4: Day 4 of culture
Method: Normal human fibroblasts were purchased from Clonetics (San Diego, Calif.) and were thawed and cultured in Fibroblast Growth Medium (Clonetics) according to the manufacturer's instructions. Once the cells reached confluence in the flask, they were harvested by trypsinization and utilized for the studies described below.
Rat tails were harvested from 200 gram female rats and frozen until use. The frozen rat tails were thawed in 70% (vol/vol) ethanol for 20 minutes. The tendon bundles were excised in 70% ethanol in a vertical laminar flow hood. The individual tendons were pulled out of the tendon sheath, minced, and placed in dilute acetic acid (1:1000) using 250 ml per tail. The mixture was incubated at 4° C. for 48 hours, at which point the minced tendons had swelled to the volume of the dilute acetic acid. The viscous mixture was centrifuged at 23,000 rpm in a Beckman L ultracentrifuge for 1 hour. The supernatant was harvested and further refined. This crude collagen solution was mixed with 0.1M NaOH in a 6:1 ratio to neutralize the acetic acid and precipitate the collagen. The mixture was then centrifuged at 1500 rpm for 5 minutes. The supernatant was discarded and an equal volume of fresh acetic acid (1:1000) was introduced to resolubilize the collagen over 48 hours. This solution was stored at 4° C. as refined collagen. The protein concentration was determined by BCA assay.
The collagen lattices for the assessment of contraction by fibroblasts and angiotensin II were formed in 60 mm Falcon bacteriological dishes. Each dish contained 1 ml 4×DMEM High glucose medium, 1 ml fetal calf serum, 0.25 ml NaOH, 1.5 ml of 500 μg/ml refined collagen and 1 ml of fibroblasts in Fibroblast Growth Medium (7.5×10^4 cells/ml to 7.5×10^5 cells/ml). In these cultures, various concentrations of AII (1 to 10 μg/ml) were added to assess the effect of AII on the formation of an artificial dermis. The cultures were placed in an incubator at 37° C. in an atmosphere of 5% CO2 in air. At various times after culture initiation, the diameter of the formed lattice was measured. As there are slight differences in diameter at various points (ie: the lattices were not always perfectly round), the average of the largest and the smallest diameters were taken.
Similar experiments were conducted using AII analogues and fragments, except that ten μg/ml of each of the peptides shown in Table 3 were added to 1×10^5 of fibroblasts/well. At various times after culture initiation, the diameter of the formed lattice was measured.

[2] = tested on: Human keratinocytes; experiment: Keratinocyte proliferation on Integra artificial dermis; format: cell-based; conditions: 10 μg/ml peptide, 1×10^5 cells/ml
Source text: Integra, a commercially available artificial dermis of chondrotin sulfate and collagen, was obtained (Integra Life Sciences) and used in culture as a matrix for keratinocyte growth. The Integras was washed free of preservative by a sterile saline for injection and cut to size to fit snugly into the bottom of 24 well plates. After trimming, the pieces of Integra were placed silicone-side down into the wells.
Human keratinocytes were purchased from Clonetics and thawed and cultured as described in Example 3, except that they were grown in Keratinocyte Growth Medium, as per the manufacturer's instructions. Once the cells reached confluence in the flask, they were detached from the tissue culture flasks by trypsinization. The cells were resuspended at 1×10^5 cells/ml in Keratinocyte Growth Medium or Keratinocyte Basal Medium with or without 10 μg/ml of various AII-related peptides (AII, AII(1-7), Pro3 AII(1-7), Ala4-AIII, and Pro3-AII; see Table 5 below). One ml of these cell preparations was added to wells of the 24 well plates containing Integra membrane. The cultures were placed in an incubator at 37° C. in an atmosphere of 5% CO2 in air. At various times after initiation of the cultures, the number of keratinocytes on the surface of the Integra membrane in 5 100×fields was assessed under phase contrast microscopy.

[3] = tested on: AT2 receptor; conditions: cited from earlier work
[4] = tested on: living skin equivalent (LSE) epidermis; experiment: Epidermal thickness of living skin equivalent (LSE) presoaked in AII and grafted on nude mice; format: in vivo, Swiss nude mice
Source text: Twenty three male Swiss nude mice (22-24 grams) were purchased from Taconic Laboratories and quarantined at least two days prior to surgery, and divided into 4 groups of mice. The mice were anesthetized with an intramuscular injection of Ketamine (ketaset; Phoenix Pharmaceuticals, Inc.) and Rompun (xylazine; Phoenix Pharmaceuticals, Inc.) and a 1 cm×1 cm full thickness skin excision was made on their dorsal surface. Each group received an Apligraph LSE (Organogenesis; Canton, Mass.) that had been soaked for 10 minutes in concentrations of AII ranging from 0 to 1.0 mg/ml. The LSE was placed in the defect and trimmed with microscissors so that no gap was observed between the edges of the mouse skin and the LSE. After the graft was placed, the dorsal surface of the mouse was covered by petroleum embedded gauze (Dermacea) followed by two adhesive bandages (Baxter). After recovery from anesthesia, the mice were returned to their individual cages and observed daily until euthenasia. The mice received intramuscular analgesia for the first three days after surgery. No mouse lost their bandage prior to bandage removal on day 7 and day 23. […]
[…] The thickest part of each graft was measured and the thickness of the graft at one-half of a 10×field to each side of the thickest portion was also measured.

[5] = tested on: keratinocytes from explants of human skin; experiment: Outgrowth of keratinocytes from explants of human skin on Dermagraft; format: cell-based; conditions: AII 1 or 10 μg/ml, 7 days
Source text: Human skin explants were obtained from surgery of split thickness skin grafts and cut by scalpel in to 2 mm×2 mm squares. Ten explants per condition were placed dermal side down on frozen and thawed Dermagraft (Advanced Tissue Sciences, San Diego, Calif.) and cultured at the air-liquid interface using Keratinocyte-SFM medium (Gibco BRL, Grand Island, N.Y.) supplemented with epidermal growth factor and bovine pituitary extract according to the manufacturer's instructions. The culture medium contained penicillin (50 U/ml) and streptomycin (50 μg/ml) and extra calcium chloride to a final concentration of 1 mM. Angiotensin II was added to the culture medium at a final concentration of 1 or 10 μg/ml. The cultures were maintained at 37° C. with 5% CO2 and medium with and without AII and the medium was changed twice weekly. After 7 days, the cultures were fixed in formalin for one hour, stained with hematoxylin and washed in tap water. The dermal replacements appeared dark purple except for the area where the keratinocytes exclude the stain. Cultures were photographed using a dissection microscope at a fixed magnification and the area of outgrowth was quantified by gravimetric planimetry.

[6] = Unspecified test of effectiveness of AII fragments; conditions: test not specified

Substance | Diameter of Lattice, Day 1 [1] [cm] | Diameter of Lattice, Day 2 [1] [cm] | Diameter of Lattice, Day 3 [1] [cm] | Diameter of Lattice, Day 4 [1] [cm] | proliferation of keratinocytes (number on the surface of the Integra membrane) [2] | further results
--RVYnLHPF (RVY[Nle]HPF) [NorLeu4 AIII] | 3.4 | 2.0 | 1.6 | 1.5 | – | –
Asp-Arg-Val-Tyr-Ile-His-Pro (DRVYIHP) [AII(1-7)] | 3.4 | 2.4 | 2.0 | 1.7 | increased the proliferation of keratinocytes | –
Asp-Arg-Val-Tyr-Ile-His-Pro-Phe (DRVYIHPF) [AII, known pressor agent, commercially available, reference compound] | 3.3 | 2.4 | 1.6 | 1.4 | increased the proliferation of keratinocytes | affinity for AT2 than AT1 ([3]; AT2 versus AT1): 100 times; vessels attached to underside of graft ([4]; day 7, one of the AII-treated grafts): numerous vessels attached to its underside; epidermal thickness ([4]; day 23 post-grafting, LSE soaked 10 minutes in AII 0 to 1.0 mg/ml): increased in a concentration-dependent manner; contraction of collagen lattices ([1]; AII 1 to 10 μg/ml, fibroblasts 7.5×10^4 to 7.5×10^5 cells/ml): accelerated the contraction of collagen lattices; area of the artificial dermis covered with keratinocytes (outgrowth) [5]: increased the area of the artificial dermis covered with keratinocytes
Asp-Arg-Val-Tyr-Ile-Xaa-Pro-Phe (DRVYI[Phe(4-NH2)]PF) [(p-NH2-Phe)6-AII] | – | – | – | – | – | binding characteristics ([3]; experimental models tested, compared with AT2 antagonists): comparable to AT2 antagonists
DR(Acpc)YIHPF (DR[Ac5c]YIHPF) [Acpc3 AII] | 3.5 | 2.0 | 1.6 | 1.4 | – | –
DRPYIHP [Pro3 AII(1-7)] | – | – | – | – | increased the proliferation of keratinocytes | –
DRPYIHPF [Pro3-AII] | – | – | – | – | increased the proliferation of keratinocytes | –
DRVYIHPI [Ile8 AII] | 3.4 | 2.4 | 1.7 | 1.4 | – | –
GRVYIHPF [Gly1 AII] | 3.4 | 2.2 | 1.6 | 1.5 | – | –
His-Pro-Phe (HPF) [AII(6-8)] | – | – | – | – | – | effectiveness [6]: not to be effective
RVYAHPF [Ala4-AIII] | 3.4 | 2.7 | 1.9 | 1.6 | increased the proliferation of keratinocytes | –
Tyr-Ile-His-Pro-Phe (YIHPF) [AII(4-8)] | – | – | – | – | – | effectiveness [6]: not to be effective; also recorded: ineffective in repeated tests

— patent US6498138B1, “Method of promoting production of living tissue equivalents” (University of Southern California, priority 1998, dated 2002)
